Experimental data reported in PubChem BioAssay AID1919014 (Molecular Pharmacology Branch, DTP, NCI, 2023).
Blank lines part the entries; values can stand above or below the compound they belong to.

System: NCI-H1341 complex spheroids, percent test/control
Assay: Anticancer human tumor NCI-H1341 cell line growth inhibition [AhR];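 also: spheroids exposed to agents for seven days before readout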
Conditions: for IC50: curve of first compound; for viability, T/C: stronger effect = lower value
Procedure, shortened: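 Agents were dosed in half-log steps down from roughly clinical Cmax, or from 10 microM where Cmax was unknown, alone and with AhR antagonists. Read-out: percent test/control growth of tumor spheroids containing HUVEC and MSC stromal cells.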

[1] = second compound 0.1 µM, first compound 0.0316 µM
[2] = second compound 0.1 µM, first compound 0.1 µM
[3] = second compound 0.1 µM, first compound 0.316 µM
[4] = second compound 0.1 µM, first compound 1 µM
[5] = second compound 0.1 µM, first compound 3.16 µM
[6] = second compound 0.1 µM, first compound 10 µM
[7] = second compound 0.316 µM, first compound 0.0316 µM
[8] = second compound 0.316 µM, first compound 0.1 µM
[9] = second compound 0.316 µM, first compound 0.316 µM
[10] = second compound 0.316 µM, first compound 1 µM
[11] = second compound 0.316 µM, first compound 3.16 µM
[12] = second compound 0.316 µM, first compound 10 µM
[13] = second compound 1 µM, first compound 0.0316 µM
[14] = second compound 1 µM, first compound 0.1 µM
[15] = second compound 1 µM, first compound 0.316 µM
[16] = second compound 1 µM, first compound 1 µM
[17] = second compound 1 µM, first compound 3.16 µM
[18] = second compound 1 µM, first compound 10 µM
[19] = second compound 3.16 µM, first compound 0.0316 µM
[20] = second compound 3.16 µM, first compound 0.1 µM
[21] = second compound 3.16 µM, first compound 0.316 µM
[22] = second compound 3.16 µM, first compound 1 µM
[23] = second compound 3.16 µM, first compound 3.16 µM
[24] = second compound 3.16 µM, first compound 10 µM
[25] = second compound 10 µM, first compound 0.0316 µM
[26] = second compound 10 µM, first compound 0.1 µM
[27] = second compound 10 µM, first compound 0.316 µM
[28] = second compound 10 µM, first compound 1 µM
[29] = second compound 10 µM, first compound 3.16 µM
[30] = second compound 10 µM, first compound 10 µM

IC50 (second compound 0.1 µM): < 0.0316 µM | IC50 (second compound 0.316 µM): < 0.0316 µM | IC50 (second compound 1 µM): < 0.0316 µM | IC50 (second compound 3.16 µM): < 0.0316 µM | IC50 (second compound 10 µM): < 0.0316 µM
Compound: Nc1ccn(C2OC(CO)C(O)C2(F)F)c(=O)n1 (stereo not given) + Cc1ccccc1N=Nc1ccc(NC(=O)c2ccnn2C)c(C)c1
viability, T/C [1]: 33.4% | viability, T/C [2]: 38.5% | viability, T/C [3]: 43.6% | viability, T/C [4]: 34.7% | viability, T/C [5]: 32.5% | viability, T/C [6]: 34.7% | viability, T/C [7]: 40.3% | viability, T/C [8]: 38% | viability, T/C [9]: 34.7% | viability, T/C [10]: 39.6% | viability, T/C [11]: 31.6% | viability, T/C [12]: 38.5% | viability, T/C [13]: 43% | viability, T/C [14]: 42.7% | viability, T/C [15]: 35.5% | viability, T/C [16]: 32.3% | viability, T/C [17]: 31.1% | viability, T/C [18]: 35.3% | viability, T/C [19]: 45% | viability, T/C [20]: 38.5% | viability, T/C [21]: 38.7% | viability, T/C [22]: 32.3% | viability, T/C [23]: 36.9% | viability, T/C [24]: 32.5% | viability, T/C [25]: 44.2% | viability, T/C [26]: 40.4% | viability, T/C [27]: 41.4% | viability, T/C [28]: 34.9% | viability, T/C [29]: 29.7% | viability, T/C [30]: 39.3%

IC50 (second compound 0.1 µM): > 10 µM | IC50 (second compound 0.316 µM): > 10 µM | IC50 (second compound 1 µM): > 10 µM | IC50 (second compound 3.16 µM): > 10 µM | IC50 (second compound 10 µM): > 10 µM
Compound: O=C(c1cc(Cc2n[nH]c(=O)c3ccccc23)ccc1F)N1CCN(C(=O)C2CC2)CC1 + CC(CO)NC(=O)c1cc(-c2ccc(Cl)cc2)nn(-c2cnn(C)c2)c1=O
viability, T/C [1]: 89.5% | viability, T/C [2]: 98.4% | viability, T/C [3]: 93.7% | viability, T/C [4]: 89.2% | viability, T/C [5]: 82.4% | viability, T/C [6]: 70.6% | viability, T/C [7]: 96.1% | viability, T/C [8]: 93.6% | viability, T/C [9]: 91.6% | viability, T/C [10]: 80.1% | viability, T/C [11]: 77.1% | viability, T/C [12]: 72.7% | viability, T/C [13]: 80.6% | viability, T/C [14]: 105% | viability, T/C [15]: 97.3% | viability, T/C [16]: 81.5% | viability, T/C [17]: 86.8% | viability, T/C [18]: 74.6% | viability, T/C [19]: 94.4% | viability, T/C [20]: 90.6% | viability, T/C [21]: 94.8% | viability, T/C [22]: 75.9% | viability, T/C [23]: 84.2% | viability, T/C [24]: 60.7% | viability, T/C [25]: 70.2% | viability, T/C [26]: 77.5% | viability, T/C [27]: 85% | viability, T/C [28]: 65.9% | viability, T/C [29]: 71.9% | viability, T/C [30]: 58.6%
